From ChEMBL document CHEMBL1201862, “PubChem BioAssay data set” (2004)
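Growth conditions: 96-well plates. Treatment: test compound, 48 hours, 5 concentrations. Analysis: linear interpolation between bracketing concentrations; unreached endpoints set to highest concentration. Abbreviation: GI50, concentration required for 50% inhibition of growth.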 The source made the active and inactive calls. No stated cut-off is given here; in the data, active = GI50 up to about 1.1 µM and inactive = higher.

How the values were obtained:
Experiment in all cases: growth of human tumour cells (NCI), 48 h
CAKI-1 = tested on: CAKI-1
SNB-19 = tested on: SNB-19
SF-268 = tested on: SF-268
HOP-92 = tested on: HOP-92
OVCAR-5 = tested on: OVCAR-5
SW-620 = tested on: SW-620
UACC-257 = tested on: UACC-257
HCC 2998 = tested on: HCC 2998
CCRF-CEM = tested on: CCRF-CEM
Malme-3M = tested on: Malme-3M
KM-20L2 = tested on: KM-20L2
M19-MEL = tested on: M19-MEL
LOX IMVI = tested on: LOX IMVI
COLO 205 = tested on: COLO 205
786-0 = tested on: 786-0
KM12 = tested on: KM12
OVCAR-3 = tested on: OVCAR-3

SMILES	GI50 (CAKI-1)	GI50 (SNB-19)	GI50 (SF-268)	GI50 (HOP-92)	GI50 (OVCAR-5)	GI50 (SW-620)	GI50 (UACC-257)	GI50 (HCC 2998)	GI50 (CCRF-CEM)	GI50 (Malme-3M)	GI50 (KM-20L2)	GI50 (M19-MEL)	GI50 (LOX IMVI)	GI50 (COLO 205)	GI50 (786-0)	GI50 (KM12)	GI50 (OVCAR-3)
Cc1cc(=O)n(-c2ccccc2)c(=O)o1	> 100 µM (inactive)	> 100 µM (inactive)	> 100 µM (inactive)	> 100 µM (inactive)	> 100 µM (inactive)	> 100 µM (inactive)	> 100 µM (inactive)	> 100 µM (inactive)	> 100 µM (inactive)	> 100 µM (inactive)	> 100 µM (inactive)	> 100 µM (inactive)	32.8 µM (inactive)	> 100 µM (inactive)	> 100 µM (inactive)	> 100 µM (inactive)	> 100 µM (inactive)
CCC1(CC)C(=O)NC(=S)N=C1N	–	> 100 µM (inactive)	> 100 µM (inactive)	> 100 µM (inactive)	> 100 µM (inactive)	> 100 µM (inactive)	> 100 µM (inactive)	–	> 100 µM (inactive)	> 100 µM (inactive)	> 100 µM (inactive)	> 100 µM (inactive)	> 100 µM (inactive)	> 100 µM (inactive)	> 100 µM (inactive)	–	> 100 µM (inactive)
O=C(/N=C(\Nc1ccccc1)SCCS/C(=N/C(=O)c1cccs1)Nc1ccccc1)c1cccs1	23.3 µM (inactive)	> 100 µM (inactive)	> 10 µM (inactive)	6.37 µM (inactive)	> 100 µM (inactive)	95.7 µM (inactive)	33 µM (inactive)	35.1 µM (inactive)	34.8 µM (inactive)	91.6 µM (inactive)	41.9 µM (inactive)	53.8 µM (inactive)	36.3 µM (inactive)	77.1 µM (inactive)	61.4 µM (inactive)	41 µM (inactive)	54 µM (inactive)
O=c1[nH]c(=O)n([C@@H]2C[C@H](CO)[C@H](O)C2)cc1/C=C/Br	> 100 µM (inactive)	> 100 µM (inactive)	> 100 µM (inactive)	> 100 µM (inactive)	> 100 µM (inactive)	> 100 µM (inactive)	> 100 µM (inactive)	> 100 µM (inactive)	> 100 µM (inactive)	> 100 µM (inactive)	> 100 µM (inactive)	> 100 µM (inactive)	> 100 µM (inactive)	–	> 100 µM (inactive)	> 100 µM (inactive)	> 100 µM (inactive)
COC1CCC(OS(C)(=O)=O)C(CO)O1 (stereo not drawn)	–	–	–	> 100 µM (inactive)	> 100 µM (inactive)	> 100 µM (inactive)	> 100 µM (inactive)	> 100 µM (inactive)	> 100 µM (inactive)	> 100 µM (inactive)	> 100 µM (inactive)	> 100 µM (inactive)	> 100 µM (inactive)	–	> 100 µM (inactive)	> 100 µM (inactive)	> 100 µM (inactive)
CS/C(=N\c1ccccc1Cl)NC(=O)c1ccc(Br)cc1	32.1 µM (inactive)	33.1 µM (inactive)	59.8 µM (inactive)	< 0.01 µM (active)	> 100 µM (inactive)	> 100 µM (inactive)	> 100 µM (inactive)	> 100 µM (inactive)	> 10 µM (inactive)	33.9 µM (inactive)	> 100 µM (inactive)	> 100 µM (inactive)	> 100 µM (inactive)	> 100 µM (inactive)	27.1 µM (inactive)	> 100 µM (inactive)	> 100 µM (inactive)
CC12CCC(=O)C[C@H]1CCC(OC=O)C2Br (stereo partly drawn)	> 100 µM (inactive)	> 100 µM (inactive)	> 100 µM (inactive)	> 100 µM (inactive)	> 100 µM (inactive)	> 100 µM (inactive)	> 100 µM (inactive)	> 100 µM (inactive)	> 100 µM (inactive)	> 100 µM (inactive)	> 100 µM (inactive)	> 100 µM (inactive)	> 100 µM (inactive)	> 100 µM (inactive)	> 100 µM (inactive)	> 100 µM (inactive)	> 100 µM (inactive)
Cc1ccccc1NC(=O)/C(=N\NC(N)=S)C(C#N)c1ccccc1 (stereo not drawn)	–	> 100 µM (inactive)	> 100 µM (inactive)	> 100 µM (inactive)	> 100 µM (inactive)	> 100 µM (inactive)	> 100 µM (inactive)	> 100 µM (inactive)	> 100 µM (inactive)	> 100 µM (inactive)	> 100 µM (inactive)	> 100 µM (inactive)	> 100 µM (inactive)	> 100 µM (inactive)	> 100 µM (inactive)	> 100 µM (inactive)	> 100 µM (inactive)
CC(C)[C@H](COC(C)(C)C)/N=C/N1CSc2ccccc21	–	37.8 µM (inactive)	59 µM (inactive)	17.6 µM (inactive)	> 100 µM (inactive)	35.4 µM (inactive)	–	47.3 µM (inactive)	33.1 µM (inactive)	–	27.8 µM (inactive)	36.6 µM (inactive)	33.7 µM (inactive)	18.9 µM (inactive)	49.8 µM (inactive)	27.6 µM (inactive)	23 µM (inactive)
CCNC(=O)COc1ccc(Cl)cc1Cl	> 100 µM (inactive)	> 100 µM (inactive)	> 100 µM (inactive)	> 100 µM (inactive)	> 100 µM (inactive)	> 100 µM (inactive)	> 100 µM (inactive)	–	–	> 100 µM (inactive)	> 100 µM (inactive)	> 100 µM (inactive)	–	> 100 µM (inactive)	> 100 µM (inactive)	> 100 µM (inactive)	> 100 µM (inactive)
ClCc1ccc(C2OCCO2)cc1	–	> 43 µM (inactive)	> 100 µM (inactive)	18.8 µM (inactive)	> 48.9 µM (inactive)	16.8 µM (inactive)	14.5 µM (inactive)	17.8 µM (inactive)	> 37.7 µM (inactive)	20.3 µM (inactive)	> 45.9 µM (inactive)	14 µM (inactive)	7.23 µM (inactive)	19.1 µM (inactive)	23.3 µM (inactive)	12.8 µM (inactive)	22.3 µM (inactive)
Cc1ccc(NC(=O)NC23CC4CC(CC(F)(C4)C2)C3)cc1	–	> 100 µM (inactive)	–	55.2 µM (inactive)	> 100 µM (inactive)	> 100 µM (inactive)	> 100 µM (inactive)	> 100 µM (inactive)	56.4 µM (inactive)	> 100 µM (inactive)	45.9 µM (inactive)	> 100 µM (inactive)	> 100 µM (inactive)	> 100 µM (inactive)	> 100 µM (inactive)	82.6 µM (inactive)	> 100 µM (inactive)
COc1ccc(C(C2=C(O)CC(C)OC2=O)C2=C(O)CC(C)OC2=O)cc1 (stereo not drawn)	> 100 µM (inactive)	> 100 µM (inactive)	> 100 µM (inactive)	–	> 100 µM (inactive)	> 100 µM (inactive)	> 100 µM (inactive)	> 100 µM (inactive)	> 100 µM (inactive)	> 100 µM (inactive)	> 100 µM (inactive)	> 100 µM (inactive)	> 100 µM (inactive)	> 100 µM (inactive)	> 100 µM (inactive)	> 100 µM (inactive)	> 100 µM (inactive)
O=C1C2=C(CCCCC2)C2CCCCC12O (stereo not drawn)	–	> 100 µM (inactive)	> 100 µM (inactive)	> 100 µM (inactive)	–	> 100 µM (inactive)	> 100 µM (inactive)	> 100 µM (inactive)	> 100 µM (inactive)	> 100 µM (inactive)	> 100 µM (inactive)	> 100 µM (inactive)	> 100 µM (inactive)	> 100 µM (inactive)	> 100 µM (inactive)	> 100 µM (inactive)	> 100 µM (inactive)
CC1OC(n2cc(C(F)(F)F)c(=O)[nH]c2=O)C=CC1=O (stereo not drawn)	–	16.4 µM (inactive)	39.2 µM (inactive)	23.9 µM (inactive)	19.4 µM (inactive)	17.6 µM (inactive)	19.1 µM (inactive)	18.3 µM (inactive)	–	18.4 µM (inactive)	22.3 µM (inactive)	20.3 µM (inactive)	17.6 µM (inactive)	19.3 µM (inactive)	18.4 µM (inactive)	18.5 µM (inactive)	17.7 µM (inactive)
O=C(N/C(=C\c1ccc([N+](=O)[O-])cc1)c1nc2cc(Cl)ccc2[nH]1)c1ccccc1	24.4 µM (inactive)	24.9 µM (inactive)	18.4 µM (inactive)	14 µM (inactive)	11.3 µM (inactive)	19.5 µM (inactive)	–	18 µM (inactive)	18.6 µM (inactive)	35.1 µM (inactive)	16.3 µM (inactive)	31.6 µM (inactive)	–	–	17.7 µM (inactive)	21.1 µM (inactive)	21.8 µM (inactive)
COC(=O)C(=O)C(C(=O)C(=O)Nc1ccc(C)cc1C)c1nc2ccccc2nc1O (stereo not drawn)	21.3 µM (inactive)	> 100 µM (inactive)	99.1 µM (inactive)	–	30.9 µM (inactive)	> 100 µM (inactive)	58.7 µM (inactive)	67.3 µM (inactive)	4.99 µM (inactive)	57.4 µM (inactive)	> 100 µM (inactive)	> 100 µM (inactive)	47 µM (inactive)	79.3 µM (inactive)	77.4 µM (inactive)	64.3 µM (inactive)	32.7 µM (inactive)
Cc1ccccc1NC(=O)/C=N/O	> 100 µM (inactive)	> 100 µM (inactive)	> 100 µM (inactive)	–	> 100 µM (inactive)	> 100 µM (inactive)	> 100 µM (inactive)	> 100 µM (inactive)	< 0.01 µM (active)	> 100 µM (inactive)	16.9 µM (inactive)	> 100 µM (inactive)	> 100 µM (inactive)	> 100 µM (inactive)	> 100 µM (inactive)	> 100 µM (inactive)	> 100 µM (inactive)
